Experimental data as given in patent US20250270200A1, “CTPS1 INHIBITORS AND USES THEREOF” (Nimbus Clotho, Inc., priority 2022, published 2025).

Molecular target: T1, human CTPS1 (Homo sapiens, UniProt P17812)
T1 sequence (P17812 1-591): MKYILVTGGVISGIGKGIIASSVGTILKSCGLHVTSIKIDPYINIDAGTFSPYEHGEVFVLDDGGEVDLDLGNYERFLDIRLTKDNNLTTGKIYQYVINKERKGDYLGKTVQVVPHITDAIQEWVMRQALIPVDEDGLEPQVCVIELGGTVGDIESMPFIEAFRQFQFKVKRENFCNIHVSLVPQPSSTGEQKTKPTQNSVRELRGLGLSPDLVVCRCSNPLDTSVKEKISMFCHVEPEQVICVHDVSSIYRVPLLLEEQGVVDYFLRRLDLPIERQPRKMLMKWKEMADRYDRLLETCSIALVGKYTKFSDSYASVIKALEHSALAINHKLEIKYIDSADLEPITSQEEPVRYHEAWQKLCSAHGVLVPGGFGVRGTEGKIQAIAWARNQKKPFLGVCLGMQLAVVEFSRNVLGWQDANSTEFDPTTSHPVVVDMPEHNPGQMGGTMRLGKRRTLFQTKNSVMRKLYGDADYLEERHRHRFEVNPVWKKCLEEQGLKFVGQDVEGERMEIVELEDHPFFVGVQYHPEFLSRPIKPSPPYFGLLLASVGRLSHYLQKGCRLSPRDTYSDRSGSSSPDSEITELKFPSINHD
Test: ADP-Glo assay, human CTPS1 enzyme inhibition
Assay type: biochemical
Conditions: wild-type human CTPS1 25 nM; ATP 120 μM, UTP 160 μM, GTP 60 μM, L-glutamine 100 μM; 25 degrees C.; read-out: ADP-Glo_WT_hCTPS1—25 nM_IC50 (IC50)
Method in brief: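 ADP-Glo luminescence quantified ADP produced by 25 nM purified human CTPS1 (full length, FLAG-His tagged) at 25° C within the linear phase. Final substrates: ATP 120 μM, UTP 160 μM, GTP 60 μM, L-glutamine 100 μM; 1% DMSO; pH 7.4 HEPES buffer with Mg2+, KCl, DTT. Compound pre-incubated with enzyme 10 min, then with ATP/UTP 10 min.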

Row | IC50 | Structure (SMILES)
1 | 50 to 100 nM | CCOc1cncc(-c2cnc(C(=O)N[C@H](c3cccc(NS(=O)(=O)C(F)F)c3)[C@@H](C)CN3CCCCC3)s2)n1 (single isomer, unassigned) [II-14]

Same assay, conditions: wild-type human CTPS1, 25 nM enzyme; ADP-Glo; read-out: ADP-Glo_WT_hCTPS1—25 nM_IC50 (IC50)

Row | Structure (SMILES) | IC50
2 | CCOc1cncc(-c2cnc(C(=O)N[C@H](CN3CCN(C4CC4)CC3)c3cc(NS(=O)(=O)C4CC4)ncn3)s2)n1 [I-249, (R)-N-(1-(6-(cyclopropanesulfonamido)pyrimidin-4-yl)-2-(4-cyclopropylpiperazin-1-yl)ethyl)-5-(6-ethoxypyrazin-2-yl)thiazole-2-carboxamide] | 25 to 50 nM
3 | CCOc1cncc(-c2cnc(C(=O)N[C@@H](C[C@@H]3COCCN3C)c3cccc(NS(=O)(=O)C(F)F)c3)s2)n1 [I-191, N-((S)-1-(3-((difluoromethyl)sulfonamido)phenyl)-2-((R)-4-methylmorpholin-3-yl)ethyl)-5-(6-ethoxypyrazin-2-yl)thiazole-2-carboxamide] | 25 to 50 nM
4 | CCOc1cncc(-c2ccc(C(=O)N[C@@H](c3cc(NS(=O)(=O)C4CC4)ccn3)[C@@H]3CCCO3)nc2)n1 [I-69, N-((S)-(4-(cyclopropanesulfonamido)pyridin-2-yl)((S)-tetrahydrofuran-2-yl)methyl)-5-(6-ethoxypyrazin-2-yl)picolinamide] | 25 to 50 nM
5 | CCOc1cncc(-c2cnc(C(=O)N[C@@H](CN3C[C@H]4CC[C@@H]3C4)c3cc(NS(=O)(=O)C4CC4)ccn3)s2)n1 [I-149, N-((S)-2-((1R,4S)-2-azabicyclo[2.2.1]heptan-2-yl)-1-(4-(cyclopropanesulfonamido)pyridin-2-yl)ethyl)-5-(6-ethoxypyrazin-2-yl)thiazole-2-carboxamide] | 50 to 100 nM

Continued, values first:

Row | IC50 | Structure (SMILES)
6 | 5 to 25 nM | CCOc1cncc(-c2cnc(C(=O)N[C@H](CN3C[C@H]4C[C@@H](C3)C4)c3cc(NS(=O)(=O)C4CC4)ccn3)s2)n1 [I-152, N-((R)-2-((1R,5R)-3-azabicyclo[3.1.1]heptan-3-yl)-1-(4-(cyclopropanesulfonamido)pyridin-2-yl)ethyl)-5-(6-ethoxypyrazin-2-yl)thiazole-2-carboxamide]
7 | 5 to 25 nM | CCOc1cncc(-c2cnc(C(=O)N[C@@H](c3cc(NS(=O)(=O)C4CC4)ccn3)C(C)(C)OC)s2)n1 [I-91, (S)-N-(1-(4-(cyclopropanesulfonamido)pyridin-2-yl)-2-methoxy-2-methylpropyl)-5-(6-ethoxypyrazin-2-yl)thiazole-2-carboxamide]
8 | 5 to 25 nM | CCOc1cncc(-c2cnc(C(=O)N[C@@H](c3cc(NS(=O)(=O)C4CC4)ccn3)[C@@H]3CCN(CCF)C3)s2)n1 [I-109, N-((R)-(4-(cyclopropanesulfonamido)pyridin-2-yl)((R)-1-(2-fluoroethyl)pyrrolidin-3-yl)methyl)-5-(6-ethoxypyrazin-2-yl)thiazole-2-carboxamide]
9 | 5 to 25 nM | CCOc1cncc(-c2cnc(C(=O)N[C@H](CO[C@H]3CCOC3)c3cc(NS(=O)(=O)C4CC4)ccn3)s2)n1 [I-241, N-((S)-1-(4-(cyclopropanesulfonamido)pyridin-2-yl)-2-(((S)-tetrahydrofuran-3-yl)oxy)ethyl)-5-(6-ethoxypyrazin-2-yl)thiazole-2-carboxamide]
10 | 5 to 25 nM | CCOc1cncc(-c2cnc(C(=O)NCc3cncc(NS(=O)(=O)C4CC4)n3)s2)n1 [I-180, N-((6-(cyclopropanesulfonamido)pyrazin-2-yl)methyl)-5-(6-ethoxypyrazin-2-yl)thiazole-2-carboxamide]
11 | 5 to 25 nM | CCOc1cncc(-c2cnc(C(=O)N[C@@H](c3cccc(NS(=O)(=O)C(F)F)c3)C3CCOCC3)s2)n1 [I-195, (R)-N-((3-((difluoromethyl)sulfonamido)phenyl)(tetrahydro-2H-pyran-4-yl)methyl)-5-(6-ethoxypyrazin-2-yl)thiazole-2-carboxamide]
